# Columns and labels:
# [1] = system: HIV-1JR-FL EnvΔCT expressed at the surface of HOS cells; assay: Cell-based ELISA (CBE), 17b readout; settings: MCG analogs 50 μM; BNM-III-170 5 μM; 2G12 and DMSO normalized
# Protocol: Detection of trimeric HIV-1 Env at the surface of HOS cells was performed by cell-based ELISA, as described in Desormeaux, “The highly conserved layer-3 component of the HIV-1 gp120 inner domain is critical for CD4-required conformational transitions,” J. Virol. 87:2549-2562; Alsahafi, “Effects of the I559P gp41 change on the conformation and function of the human immunodeficiency virus (HIV-1) membrane envelope glycoprotein trimer,” 2015, PLoS One 10:e0122111; and Veillette, “Conformational evaluation of HIV-1 trimeric envelope glycoproteins using a cell-based ELISA assay,” 2014, J. Vis. Exp., 91:51995. To enhance cell-surface expression of HIV-1 EnvRF a stop codon was introduced to replace the codon for Gly 711, truncating the cytoplasmic tail (ACT). Briefly, HOS cells were seeded in T-75 flasks (3×10^6 cells per flask) and transfected the next day with 22.5 μg of Env-expressing plasmids (wild-type and mutants S375W, S375T, H66A, A582T/L587A, etc) using the standard polyethylenimine (PEI, Polyscience Inc, PA, USA) transfection method. Twenty-four hours after transfection, cells were plated in 384-wells plates (2×10^4 cells per well). One day later, cells were washed twice with blocking buffer (10 mg/mL non-fat dry milk, 1.8 mM CaCl2), 1 mM MgCl2, 25 mM Tris, pH 7.5 and 140 mM NaCl) and then incubated for 30 minutes at room temperature with different concentrations of MCG analogs or equivalent volume of vehicle (DMSO). Cells were then incubated for an additional 1 h at room temperature with anti-HIV-1 Env monoclonal antibodies recognizing CD4-induced gp120 epitopes (17b, A32), CD4-binding site gp120 epitopes (VRC03, VRC01, F105, and b12), gp120 V3 glycans (19b, PGT126, PGT122, and 10.1074), gp120 outer domain (2G12), and gp120-gp41 interface (PGT151 and VRC34) epitopes. All ligands were diluted in blocking buffer. A horseradish peroxidase-conjugated antibody specific for the Fc region of human or mouse IgG (Pierce) was then incubated with the samples for 45 minutes at room temperature. For all conditions, cells were washed 5 times with blocking buffer and 5 times with washing buffer (1.8 mM CaCl2), 1 mM MgCl2, 25 mM Tris, pH 7.5 and 140 mM NaCl). HRP enzyme activity was determined after the addition of 20 μl per well of a 1:1 mix of Western Lightning oxidizing and luminol reagents (Perkin Elmer Life Sciences). Light emission was measured with an LB 941 TriStar luminometer (Berthold Technologies) and analysis with Graph Pad software.
# The data of Table 2 is given as the fold over BNM-III-170 (5 μM) of Cell-Based ELISA with MCG Analogs (50 μM)—17b readout, 2G12 and DMSO normalized.
# To identify molecules able to expose vulnerable Env epitopes, a cell-based ELISA (CBE) assay was adapted, capable of measuring conformational changes of membrane-bound trimeric Env as described in Veillette, 2014, J. Vis. Exp. doi:10.3791/51995:51995; Haim, 2011, PLoS Pathog 7:e1002101, into a high-throughput screening (HTS) platform (FIG. 10A). Briefly, the cytoplasmic-tail deleted HIV-1JR-FL Tier-2/3 Env was expressed on the surface of HOS cells in a 384-well-plate format. The cytoplasmic tail of Env was deleted to enhance Env expression at the cell surface and therefore enhance the sensitivity of the CBE assay. See, Veilette and Haim, 2009, PLoS Pathog 5:e100036. Small molecules or, as a positive control, soluble (sCD4) were added to expose the HIV-1JR-FL EnvΔCT epitope that can be recognized by the CD4i antibody 17b. See, Wyatt, 1995, J. Virol. 69:5723-5733; Rizzuto, 1998, Science 280:1949-1953.
# 17b binding was detected by a horseradish peroxidase-conjugated (HRP) second antibody, and HRP enzyme activity was measured by Western Lightning oxidizing and luminal reagents. 17b binding in the presence of sCD4 was set as the control (FIG. 10B, blue dots), small molecules that enhanced 17b binding above 25% of the one induced by sCD4 were retested in quadruplicate and only one molecule (UM0059920) was deemed a true positive (FIG. 10B, red dots). […]
# [2] = system: CH58TF infected primary CD4+ T-cells; assay: HIV+ patient sera/plasma recognition of CH58TF infected primary CD4+ T-cells (flow cytometry cell-surface staining); assay type: cell-based, HIV-1; settings: Human immunodeficiency virus 1, T-cell, read-out: Fold Over DMSO (patient sera, n = 3)
# Protocol: (§1) Cell-surface staining of primary CD4+ T cells from healthy HIV uninfected individuals or CEM-NKr cells is performed, as described in Prevost, “Influence of the Envelope gp120 Phe 43 Cavity on HIV-1 Sensitivity to Antibody-Dependent Cell-Mediated Cytotoxicity Responses,” 2017, J. Virol 91; Richard, “CD4 mimetics sensitize HIV-1-infected cells to ADCC,” 2015, Proc. Natl. Acad. Sci. USA, 112:E2687-2694; Richard, “Small CD4 Mimetics Prevent HIV-1 Uninfected Bystander CD4+ T Cell Killing Mediated by Antibody-dependent Cell-mediated Cytotoxicity,” 2016, EBioMedicine 3:122-134; Veillette, “The HIV-1 gp120 CD4-Bound Conformation Is Preferentially Targeted by Antibody-Dependent Cellular Cytotoxicity-Mediating Antibodies in Sera from HIV-1-Infected Individuals,” 2015, J. Virol., 89:545-551; Veillette, “Interaction with cellular CD4 exposes HIV-1 envelope epitopes targeted by antibody-dependent cell-mediated cytotoxicity,” 2014, J. Virol., 88:2633-2644; Richard, “Uninfected Bystander Cells Impact the Measurement of HIV-Specific Antibody-Dependent Cellular Cytotoxicity Responses,” 2018, MBio. 9(2): e00358-18; Richard, “BST-2 Expression Modulates Small CD4-Mimetic Sensitization of HIV-1-Infected Cells to Antibody-Dependent Cellular Cytotoxicity,” 2017, J. Virol. 91(11):e00219-17. Binding of HIV-1 infected cells by HIV+ sera (1:1000 dilution) or anti-Env Abs (such as 17b) is performed […] in vitro infection at 37° C. in presence of different concentrations of the MCG analogs or with equivalent volume of vehicle (DMSO). Cells infected with HIV-1 primary isolates are stained intracellularly for HIV-1 p24 using the Cytofix/Cytoperm Fixation/Permeabilization Kit (BD Biosciences, Mississauga, ON, Canada) and then fluorescent anti-p24 mAb (PE-anti-p24, clone KC57; Beckman Coulter/Immunotech, Hialeah, FL) (1:100 final concentration). The percentage of infected cells (p24^+ or GFP+ cells) is determined by gating the living cell population based on the viability dye staining. Samples are analyzed on an LSRII cytometer (BD Biosciences, Mississauga, ON, Canada) and data analysis is performed using FlowJo vX0.7 (Tree Star, Ashland, OR, USA).
# HIV+ Patient Sera (n=3) Recognition of CH58TF Infected Primary CD4+ T-Cells
# Staining with patient sera and 50 μM of compounds given as a fold change over DMSO (vehicle).
# (§2) Briefly, Primary CD4 T cells isolated from PBMC were infected with HIV-1CH58TF for 48 hours. For cell surface staining, 5 μg/ml 17b (FIG. 15A) or 1:1000 diluted HIV+ plasma (n=15) (FIG. 15B) were used in the presence of the different MCG analogs (50 μM), (+)-BNM-III-170 or with an equivalent volume of vehicle (DMSO). An Alexa Fluor 647-conjugated anti-human IgG secondary Ab was then used for fluorescent labeling. For ADCC (FIG. 15C), infected cells were used as target cells in a FACS-based ADCC assay that measures the killing of infected (p24+ cells). See, Madani, 2016, J. Virol., 90:5031-5046. The assay determines susceptibility to ADCC mediated by a 1/1,000 dilution of plasma from 15 HIV-1-infected individuals in the presence of the different MCG analogs (50 μM), (+)-BNM-III-170 (50 μM) or with an equivalent volume of vehicle (DMSO). Correlation between cell-surface staining with HIV+ plasma and ADCC was calculated using the Spearman rank correlation (FIG. 15D).
# [3] = system: CH58TF infected primary CD4+ T-cells; assay: Recognition of HIV-1 infected cells by 17b (flow cytometry cell-surface staining); assay type: cell-based; settings: Human immunodeficiency virus 1, T-cell, read-out: Fold Over DMSO (17b, n = 1)
# Protocol: as §1, §2
Compound,Fold over BNM-III-170 - 17b binding (±0.05) [1],fold induction at 50 µM [2],fold induction at 50 µM [3]
O=C(Nc1ccc(Cl)c(F)c1)[C@H]1CCCN(S(=O)(=O)c2cccnc2)C1 [(S)-MCG-III-116-A01],0.41 fold,2.15,
O=C(Nc1ccc(Cl)c(F)c1)C1CCN(S(=O)(=O)c2ccccc2)C1 (centres unmarked) [MCG-III-157-A03],0.33 fold,1.57,
O=C(Nc1ccc(Br)c(Cl)c1)[C@H]1CCCN(S(=O)(=O)c2ccccc2)C1 [(S)-MCG-III-085-D06],0.19 fold,2,6.46
CS(=O)(=O)N1CCCC(NC(=O)c2ccc(Cl)c(F)c2)C1 (centres unmarked) [MCG-III-157-C01],0.08 fold,1.04,
O=C(Nc1ccc(Cl)c(F)c1)C1CN(S(=O)(=O)c2ccccc2)CCO1 (centres unmarked) [MCG-III-211-A03],0.28 fold,1.7,2.64
O=C(Nc1ccc(Cl)c(F)c1)[C@H]1CCCN(S(=O)(=O)C2CCCCC2)C1 [(S)-MCG-III-116-A03],0.36 fold,1.56,
CCS(=O)(=O)N1CCC[C@H](C(=O)Nc2ccc(Br)c(Cl)c2)C1 [(S)-MCG-III-085-C06],0.34 fold,1.28,3.1
O=C(Nc1ccc(Cl)c(Br)c1)[C@H]1CCCN(S(=O)(=O)c2ccccc2)C1 [(S)-MCG-III-085-D05],0.10 fold,1.55,5.58
O=C(Nc1ccc(F)c(Cl)c1)[C@H]1CCCN(S(=O)(=O)c2ccccc2)C1 [(S)-MCG-III-085-D02],0.18 fold,1.37,2.54
O=C(Nc1ccc(Cl)c(Cl)c1)[C@H]1CCCN(S(=O)(=O)c2ccccc2)C1 [(S)-MCG-III-085-D03],0.20 fold,2.03,4.87
O=C(Nc1ccc(Cl)c(F)c1)[C@H]1CCCN(S(=O)(=O)c2ccc(Br)cc2)C1 [(S)-MCG-III-128],0.21 fold,1.07,
COc1ccc(S(=O)(=O)N2CCC[C@H](C(=O)Nc3ccc(Cl)c(F)c3)C2)cc1 [(S)-MCG-III-116-A05],0.29 fold,1.1,
O=C(Nc1ccc(Cl)c(F)c1)C1Cc2ccccc2N(S(=O)(=O)c2ccccc2)C1 (centres unmarked) [MCG-III-214-A03],0.09 fold,1.05,0.911
CCS(=O)(=O)N1CCCC(C(=O)Nc2ccc(Cl)c(F)c2)C1 (centres unmarked) [MCG-III-157-B02],0.68 fold,2.62,
O=C(Oc1ccc(Cl)c(F)c1)[C@H]1CCCN(S(=O)(=O)c2ccccc2)C1 [(S)-MCG-III-213-A03],0.05 fold,1.08,0.928
CC(C)(C)OC(=O)N1CCN(S(=O)(=O)c2ccccc2)CC1C(=O)Nc1ccc(Cl)c(F)c1 (centres unmarked) [MCG-III-212-A03],0.06 fold,1.24,1.1
Cn1cnc(S(=O)(=O)N2CC(C(=O)Nc3ccc(Cl)c(F)c3)Cc3ccccc32)c1 (centres unmarked) [MCG-III-214-A04],0.18 fold,0.924,1.15
N#Cc1ccc(S(=O)(=O)N2CCC[C@H](C(=O)Nc3ccc(Cl)c(F)c3)C2)cc1 [(S)-MCG-III-116-A06],0.31 fold,1.15,
CC(=O)Nc1ccc(S(=O)(=O)N2CCC[C@H](C(=O)Nc3ccc(Cl)c(F)c3)C2)cc1 [(S)-MCG-III-117],0.21 fold,1.89,
O=C(Nc1ccc(Cl)c(F)c1)[C@H]1CCCN(S(=O)(=O)c2ccccc2)C1 [(S)-MCG-III-085-D01],0.45 fold,5.95,6.4
CS(=O)(=O)N1CCC(C(=O)Nc2ccc(Cl)c(F)c2)CC1 [MCG-III-101],0.21 fold,1.14,

# Reference: patent US12286401B2, “Small molecules that sensitize HIV-1 infected cells to antibody dependent cellular cytotoxicity” (THE TRUSTEES OF THE UNIVERSITY OF PENNSYLVANIA, priority 2018, dated 2025)
